Assay results from patent US20200345021A1, “METHOD AND SYSTEM FOR ENHANCING THE EFFICACY USING IONIZED/A[…] PEROXIDE IN REDUCING MICROBIAL POPULATIONS, METHOD OF USE THEREOF” (priority 2019, published 2020).
Several values for one entry are separate records, joined by “and”; a condition that tells them apart may be missing. Equal entries are not always repeated. Where two headings read alike, the source gives them in different places. Marks after values point to notes of the source that are not given here.

System: S. Typhimurium
Conditions: for Populations of S. Typhimurium, treated / Reductions of S. Typhimurium: with cold plasma
Source text: To minimize the risk of possible bacteria becoming airborne during treatments, attenuated and non-pathogenic bacteria were used in the study. Two strains of non-pathogenic S. Typhimurium (ATCC 53647 and 53648) and three strains of L. innocua (ATCC 33090, ATCC 51742 and ATCC BAA680) were obtained from American Type Culture Collection (ATCC) (Manassas, Va., USA). Further studies used E. coli O157:H7 (ATCC 700728), S. Typhimurium (ATCC 53647 and 53648), and L. innocua (ATCC 33090) obtained from American Type Culture Collection (ATCC) (Manassas, Va., USA) and maintained as a part of the culture collection at the USDA Eastern Regional Research Center (Wyndmoor, Pa. USA). The bacteria were made to be resistant to nalidixic acid by successive growth in Trypic Soy Broth (TSB) (Difco, Sparks, Md., USA) with increasing nalidixic acid concentrations. All strains were stored at −80° C. in 1 mL of TSB containing 10% glycerol. Working cultures of S. Typhimurium and L. innocua were maintained in 9 mL TSB (supplemented with 100 μg/mL nalidixic acid for S. Typhimurium) at 4° C. after incubating at 37° C. for […], respectively, and sub-cultured each time.
Each strain of S. Typhimurium and L. innocua was cultured in 9 mL TSB (supplemented with 100 μg/mL nalidixic acid for S. Typhimurium) and incubated at 37° C. for 40 h and 48 h, respectively, harvested by centrifugation at 4000×g for 10 min at 4° C., and resuspended in 9 mL sterile Buffered Peptone Water (BPW; Difco). The pellets were resuspended in BPW to form cell suspensions with a final concentration of 108˜10^9 CFU/mL. Subsequently, suspended pellets of two strains of Salmonella and three strains of L. innocua were combined to obtain two separate culture cocktails.
Grape tomatoes, granny smith apples, romaine lettuce and cantaloupes were purchased from local markets (Philadelphia, Pa., USA) and kept at 10° C. prior to use. Fruits and vegetables were removed from 10° C. refrigeration and equilibrated to ambient temperature before being inoculated. Romaine lettuce was divided into upper green leaf and midrib tissues. Six tomatoes, six pieces (2×2 cm) of apple skins, five pieces (3×3 cm) of Romaine lettuce upper leaves, five pieces (3 cm length) of Romaine lettuce midrib area and six pieces (2×2 cm) of cantaloupe rinds with 2×3 mm thickness of flesh were used for each treatment per replicate. Bach piece w as spot inoculated with 10 μL of Salmonella and L. innocua by depositing droplets with a micropipette. The inoculated samples were dried in a bio-hood for 1 h (for tomato surfaces, romaine lettuce, apple skins and cantaloupe rinds) or 2 h (for tomato stem scars) at ambient temperature.
Produce items were placed onto a sterile test tube rack with the inoculated area facing up and the rack with produce pieces were placed inside of a treatment chamber (12×12×24 inch).
For tomato surfaces and apple skins, the treatment times (spray times) were set as 5, 8 and 10 s followed by 30 min dwell time. For upper leaves and midrib tissues of Romaine lettuce, the treatment times were 10, 20, 30 and 60 s followed by 30 min dwell time. For cantaloupe rinds, the treatment times were set as 10, 30 and 60 s followed by 30 min dwell time. For tomato stem scars, the treatment procedure included 5.8, 10, 20, 30, 60 s followed by 30 min dwell time, 6 cycles composed of 10 s treatment time followed by 10 min dwell time per cycle, and 3 cycles composed of 20 s treatment time followed by 20 min dwell time per cycle. A fan (E.Z.FAN, FP-108-1, Common Wealth Industrial Corp., Taiwan) was used in the chamber to facilitate the uniform distribution of mist during dwell time.
After each treatment, the tomato stem scars and surfaces with the inoculated bacteria were removed using a pair of sterile scissors.

[1] = Granny Smith apple skins, treatment time 5 s + 30 min dwell
[2] = Romaine lettuce leaves (upper leaf), treatment time 10 s + 30 min dwell
[3] = Romaine lettuce leaves (upper leaf), treatment time 20 s + 30 min dwell
[4] = Romaine lettuce leaves (upper leaf), treatment time 60 s + 30 min dwell
[5] = Romaine lettuce midrib area, treatment time 10 s + 30 min dwell
[6] = Romaine lettuce midrib area, treatment time 20 s + 30 min dwell
[7] = Romaine lettuce midrib area, treatment time 60 s + 30 min dwell
[8] = cantaloupe rinds, treatment time 10 s + 30 min dwell
[9] = cantaloupe rinds, treatment time 60 s + 30 min dwell
[10] = grape tomato stem scars, 10s × 6 (6 cycles of 10 s spray time followed by 10 min dwell time)
[11] = grape tomato stem scars, treatment time 8 s + 30 min dwell
[12] = grape tomato stem scars, treatment time 10 s + 30 min dwell
[13] = grape tomato stem scars, treatment time 20 s + 30 min dwell
[14] = grape tomato stem scars, treatment time 30 s + 30 min dwell
[15] = grape tomato surfaces, treatment time 5 s + 30 min dwell

OO [H2O2, hydrogen peroxide]
Populations of S. Typhimurium, treated [1]: 4.09 ± 0.13^a log CFU/piece | Reductions of S. Typhimurium [1]: 1.63 ± 0.35^b log CFU/piece | Populations of S. Typhimurium, treated (Granny Smith apple skins, treatment time 8 s + 30 min dwell, ND: not detectable (detection limit 0.70 log CFU/piece)): < 0.70 log CFU/piece | Reductions of S. Typhimurium (Granny Smith apple skins, treatment time 8 s + 30 min dwell, listed as hydrogen peroxide (H2O2) with cold plasma): more than 5 log CFU/piece | Reductions of S. Typhimurium (Granny Smith apple skins, treatment time 8 s + 30 min dwell, listed as ionized hydrogen peroxide): > 5 log CFU/piece | Populations of S. Typhimurium, treated [2]: 5.45 ± 0.34^a log CFU/piece | Reductions of S. Typhimurium [2]: 0.79 ± 0.16^c log CFU/piece | Populations of S. Typhimurium, treated [3]: 3.98 ± 0.37^b log CFU/piece | Reductions of S. Typhimurium [3]: 1.98 ± 0.24^b log CFU/piece | Populations of S. Typhimurium, treated (Romaine lettuce leaves (upper leaf), treatment time 30 s + 30 min dwell): 3.54 ± 0.11^b log CFU/piece | Reductions of S. Typhimurium (Romaine lettuce leaves (upper leaf), treatment time 30 s + 30 min dwell, listed as ionized hydrogen peroxide): 2.86 log CFU/piece and 2.86 ± 0.17^a log CFU/piece | Populations of S. Typhimurium, treated [4]: 3.57 ± 0.25^b log CFU/piece | Reductions of S. Typhimurium [4]: 2.79 ± 0.20^a log CFU/piece | Populations of S. Typhimurium, treated [5]: 4.81 ± 0.22^a log CFU/piece | Reductions of S. Typhimurium [5]: 1.53 ± 0.23^c log CFU/piece | Populations of S. Typhimurium, treated [6]: 4.09 ± 0.25^b log CFU/piece | Reductions of S. Typhimurium [6]: 2.04 ± 0.33^b log CFU/piece | Populations of S. Typhimurium, treated (Romaine lettuce midrib area, treatment time 30 s + 30 min dwell): 2.54 ± 0.32^c log CFU/piece | Reductions of S. Typhimurium (Romaine lettuce midrib area, treatment time 30 s + 30 min dwell, listed as ionized hydrogen peroxide): 3.63 log CFU/piece and 3.63 ± 0.21^a log CFU/piece | Populations of S. Typhimurium, treated [7]: 2.94 ± 0.18^c log CFU/piece | Reductions of S. Typhimurium [7]: 3.13 ± 0.48^a log CFU/piece | Populations of S. Typhimurium, treated [8]: 4.39 ± 0.32^a log CFU/piece | Reductions of S. Typhimurium [8]: 1.50 ± 0.21^b log CFU/piece | Populations of S. Typhimurium, treated (cantaloupe rinds, treatment time 30 s + 30 min dwell): 4.09 ± 0.24^a log CFU/piece | Reductions of S. Typhimurium (cantaloupe rinds, treatment time 30 s + 30 min dwell, listed as ionized hydrogen peroxide): 2.48 log CFU/piece and 2.48 ± 0.68^a log CFU/piece | Populations of S. Typhimurium, treated [9]: 3.23 ± 0.28^b log CFU/piece | Reductions of S. Typhimurium [9]: 2.44 ± 0.32^a log CFU/piece | Populations of S. Typhimurium, treated [10]: 3.89 ± 0.39^ab log CFU/piece | Reductions of S. Typhimurium [10]: 2.19 ± 0.41^b log CFU/piece | Populations of S. Typhimurium, treated (grape tomato stem scars, listed as printed 20s × 6 (title: 20s×3, 3 cycles of 20 s spray time with 20 min dwell time)): 3.60 ± 0.42^b log CFU/piece | Reductions of S. Typhimurium (grape tomato stem scars, listed as printed 20s × 6 (title: 20s×3, 3 cycles of 20 s spray time with 20 min dwell time), listed as ionized hydrogen peroxide): 2.73 log CFU/piece and 2.73 ± 0.28^a log CFU/piece | Populations of S. Typhimurium, treated (grape tomato stem scars, treatment time 5 s + 30 min dwell): 4.26 ± 0.89^ab log CFU/piece | Reductions of S. Typhimurium (grape tomato stem scars, treatment time 5 s + 30 min dwell, listed as ionized hydrogen peroxide): 1.06 log CFU/piece and 1.06 ± 0.35^d log CFU/piece | Populations of S. Typhimurium, treated [11]: 4.23 ± 0.31^ab log CFU/piece | Reductions of S. Typhimurium [11]: 1.22 ± 0.28^d log CFU/piece | Populations of S. Typhimurium, treated [12]: 4.26 ± 0.71^ab log CFU/piece | Reductions of S. Typhimurium [12]: 1.20 ± 0.14^d log CFU/piece | Populations of S. Typhimurium, treated [13]: 4.71 ± 0.26^ab log CFU/piece | Reductions of S. Typhimurium [13]: 1.51 ± 0.34^cd log CFU/piece | Populations of S. Typhimurium, treated [14]: 4.31 ± 0.20^a log CFU/piece | Reductions of S. Typhimurium [14]: 1.85 ± 0.11^bc log CFU/piece | Populations of S. Typhimurium, treated (grape tomato stem scars, treatment time 60 s + 30 min dwell): 3.85 ± 0.66^ab log CFU/piece | Reductions of S. Typhimurium (grape tomato stem scars, treatment time 60 s + 30 min dwell, listed as ionized hydrogen peroxide): 2.16 log CFU/piece and 2.16 ± 0.43^b log CFU/piece | Populations of S. Typhimurium, treated [15]: 4.44 ± 0.25^a log CFU/piece | Reductions of S. Typhimurium [15]: 1.84 ± 0.43^b log CFU/piece | Populations of S. Typhimurium, treated (grape tomato surfaces, treatment time 8 s + 30 min dwell, ND: not detectable (detection limit 0.70 log CFU/piece)): < 0.70 log CFU/piece | Reductions of S. Typhimurium (grape tomato surfaces, treatment time 8 s + 30 min dwell, listed as hydrogen peroxide (H2O2) with cold plasma): more than 5 log CFU/piece | Reductions of S. Typhimurium (grape tomato surfaces, treatment time 8 s + 30 min dwell, listed as ionized hydrogen peroxide): > 5 log CFU/piece | Reductions of S. Typhimurium (grape tomato surfaces, treatment time 10 s + 30 min dwell): 5.65 ± 0.21^a log CFU/piece | log reduction of Salmonella on other fresh produce items (produce other than smooth surfaces of tomatoes and apples, applied for a longer time period): ≤ 3.6 log | log reductions of Salmonella on rough surfaces (rough surfaces (tomato stem scars, cantaloupe rinds), similar treatment times): 2.8-3.6 log | log reductions of Salmonella on smooth surfaces (smooth surfaces (apples, tomatoes), 8-10 s treatment time + 30 min dwell time): greater than 5 log
